Source: patent EP0183174A2, “Substituted phenoxy urea, processes for its preparation and herbicide containing it as active ingredient” (KUMIAI CHEMICAL INDUSTRY CO., LTD., priority 1984, dated 1986)

Columns and labels:
Design in all cases: key: 5: Withered; 4.5: Herbicidal effect (or phytotoxicity) in a range of 90 to 99%; 4: Herbicidal effect (or phytotoxicity) in a range of 80 to 89%; 3.5: Herbicidal effect (or phytotoxicity) in a range of 70 to 79%; 3: Herbicidal effect (or phytotoxicity) in a range of 60 to 69%; 2.5: Herbicidal effect (or phytotoxicity) in a range of 50 to 59%; 2: Herbicidal effect (or phytotoxicity) in a range of 40 to 49%; 1.5: Herbicidal effect (or phytotoxicity) in a range of 30 to 39%; 1: Herbicidal effect (or phytotoxicity) in a range of 20 to 29%; 0.5: Herbicidal effect (or phytotoxicity) in a range of 1 to 19%; 0: No herbicidal effect (or no phytotoxicity)
smallflower flatsedge = test: Test Example 1: herbicidal test by water treatment in a paddy field; format: in vivo, Cvperus diffcrmis L.; conditions: evaluated thirty days after application
Description: (§1) Into each porcelain pot having a diameter of 10 cm, paddy soil was filled and puddled, and seeds of barnyardgrass (Echinochloa crus-galli L.), smallflower flatsedge, monochoria and Japanese bulrush were sown, and water was filled in a-depth of 3 cm. One day later, a predetermined amount of the wettable powder prepared in Formulation Example 3 and diluted with water was dropwise applied to the surface of the water (dose of the active ingredient: 4 kg/hectare). Thereafter, they were grown in a green house. Thirty days after the application, the herbicidal effects were evaluated in accordance with the standards as identified in Table 5.

monochoria = test: as above; format: in vivo, Monochoria vaginalis Presl; conditions: evaluated thirty days after application
Description: as §1

redroot pigweed = test: Test Example 3: herbicidal test by upland soil treatment; format: in vivo, Amaranthus retroflexus L.; conditions: evaluated twenty days after application
Excerpt: (§2) Into each plastic pot of 600 cm^2, upland soil was filled, then seeds of barnyardgrass, crabgrass, green foxtail, redroot pigweed, rice flatsedge, rice, wheat, maize, soybean, cotton and sugar beet were sown, and they were covered with soil. A predetermined amount of the wettable powder prepared from the test compound in accordance with Formulation Example 3 and diluted with water, was uniformly applied to the surface of the soil at an application rate of 1000 liter/hectare by means of a small size spray. They were grown in a greenhouse, and twenty days after the application, the herbicidal effects and phytotoxicity were evaluated in accordance with the standards as identified in Table 5.

rice flatsedge [1] = test: as above; format: in vivo, Cy^perus iria L.; conditions: evaluated twenty days after application
Excerpt: as §2

rice flatsedge [2] = test: Test Example 4: herbicidal test by upland foliage treatment; format: in vivo, Cy^perus iria L.
Description: Into each plastic pot of 120 cm^2, upland soil was filled, then seeds of barnyardgrass, crabgrass, redroot pigweed and rice flatsedge were sown, and they were grown in a greenhouse until barnyardgrass. reached 3-leaf stage. Each wettable powder prepared from the test compound in accordance with Formulation Example 3 was diluted with water to give the amount of the active ingredient corresponding to 4 kg/hectare, and the diluted solution was uniformly sprayed at an application rate of 1000 liter/hectare from the top of plants by means of a small size spray, when barnyardgrass was in the 3-leaf stage. They were grown in a greenhouse, and twenty days after the application, the herbicidal effects were evaluated in accordance with the standards as identified in Table 5.

[3] = dose of the active ingredient 4 kg/hectare, wettable powder applied to water surface one day after sowing
[4] = active ingredient 4 kg/hectare, foliage spray 1000 liter/hectare at 3-leaf stage of barnyardgrass, twenty days after application
[5] = water treatment in paddy field pot, dose of active ingredient 4 kg/hectare
[6] = upland foliage treatment, 4 kg/hectare active ingredient, sprayed at 1000 liter/hectare at barnyardgrass 3-leaf stage, evaluated twenty days after application

Row | Compound | Herbicidal effects Small flower flatsedge (smallflower flatsedge; [3]) | Herbicidal effects Monochoria (monochoria; [3]) | Herbicidal effects Redroot pigweed (redroot pigweed; Dose 1 kg/HA) | Herbicidal effects Redroot pigweed (redroot pigweed; Dose 4 kg/HA) | Herbicidal effects Rice flatsedge (rice flatsedge [1]; Dose 1 kg/HA) | Herbicidal effects Rice flatsedge (rice flatsedge [1]; Dose 4 kg/HA) | Herbicidal effects Rice flatsedge (rice flatsedge [2]; [4]) | Herbicidal effects Small flower flatsedge (smallflower flatsedge; [5]) | Herbicidal effects Monochoria (monochoria; [5]) | Herbicidal effects Rice flatsedge (rice flatsedge [2]; [6])
1 | CN(C)C(=O)NOc1cc(Cl)ccc1Cl [Compound No. 1, 3-(2,5-Dichlorophenoxy)-1,1-dimethyl urea] | 5 | 5 | 5 | 5 | 5 | 5 | 5 |  |  | 
2 | CC(C)N(C)C(=O)NOc1cc(Cl)cc(Cl)c1 [Compound No. 186, 3-(3,5-Dichlorophenoxy)-1-isopropyl-1-methyl urea trichloroacetate] |  |  | 5 | 5 | 5 | 5 | 4 (Herbicidal effect (or phytotoxicity) in a range of 80 to 89%) | 5 | 5 | 
3 | CON(C)C(=O)NOc1cc(Cl)ccc1Cl [Compound No. 242, 3-(2,5-Dichlorophenoxy)-1-methoxy-1-methyl urea] |  |  | 5 | 5 | 5 | 5 |  | 5 | 5 | 5
4 | COCCNC(=O)NOc1cc(Cl)ccc1Cl [Compound No. 243] |  |  | 5 | 5 | 5 | 5 |  | 5 | 5 | 5
